Reference: patent publication US20110124650A1, “STABLE CRYSTALLINE SALTS OF ANTIFOLATE COMPOUNDS” (Chelsea Therapeutics, Inc., priority 2009, published 2011)

What was measured:
[1] = Polymorph stress test: purity by HPLC-UV after storage; format: physicochemical; conditions: for Purity by HPLC-UV, average: average over time points
Protocol: Samples of polymorph Form Ib and polymorph Form II were analyzed for purity by HPLC-UV according to method AM-5-ASP001 performed by gradient liquid chromatography with UV-detection at 237 nm. A Hypersil GOLD column from Thermo Scientific (250×4.6 mm, 5 μm) was used at a temperature of 30° C. A Dionex STH 585 column oven was used with a Dionex P580 gradient pump and a flow rate of 1.0 ml/min (gradient elution). A Dionex Degasys DG-1210 degasser and a Gynkotek Gina 50 autosampler injector were used with an injection volume of 5 μL. A Dionex PDA-100 photodiode array detector was used at a wavelength of 237 nm. Sample runtime was 46 minutes. The samples were tested on the day of synthesis (zero point) and at 1, 2, and 4 weeks storage at ambient conditions (i.e., room temperature and room humidity), at 25° C. (+/−2° C.) and 60% relative humidity (RH) (+/−5% RH), and at 40° C. (+/−2° C.) and 75 RH (+/−5% RH). Test results are provided in Table 8 (Form Ib) and Table 9 (Form II), wherein the values provided are the area %.

[2] = Polymorph stress test: water content by Karl Fisher titration after storage; format: physicochemical; conditions: for Water content (Karl Fisher): dipotassium salt
Protocol: Samples of polymorph Form Ib and polymorph Form II also were analyzed for water content using Karl Fisher titration according to method AM-1-General/water content. A columetric Karl Fisher titrator (DL39, Mettler Toledo) was used with a Stromboli drying oven (Mettler Toledo), a generator electrode, and a standard analytical balance (at least […] accuracy). Instrument conditions were set for an oven temperature of 150° C., a gas flow rate of 100.0 mL/min, and a stirrer speed of 50%. Control parameters were set for a max time of 600 s, a current of 2.0 μA, an end point of 100 mV, and a generation speed set at normal. The samples were tested on the day of synthesis (zero point) and at 1, 2, and 4 weeks storage at ambient conditions (i.e., room temperature and room humidity), at 25° C. (+/−2° C.) and 60% relative humidity (RH) (+/−5% RH), and at 40° C. (+/−2° C.) and 75% RH (+/−5% RH). Test results are provided in Table 10 (Form Ib) and Table 11 (Form II), wherein the values provided are the percent water content.

[3] = 1 week storage, 25° C./60% RH, dipotassium salt
[4] = 1 week storage, 40° C./75% RH, dipotassium salt
[5] = 1 week storage, ambient conditions, dipotassium salt
[6] = 2 weeks storage, 25° C./60% RH, dipotassium salt
[7] = 2 weeks storage, 40° C./75% RH, dipotassium salt
[8] = 2 weeks storage, ambient conditions, dipotassium salt
[9] = 4 weeks storage, 25° C./60% RH, dipotassium salt
[10] = 4 weeks storage, 40° C./75% RH, dipotassium salt
[11] = 25° C./60% RH, dipotassium salt
[12] = 40° C./75% RH, dipotassium salt
[13] = ambient conditions, dipotassium salt
[14] = zero point (day of synthesis), dipotassium salt
[15] = 1 week storage, ambient conditions
[16] = 2 weeks storage, ambient conditions
[17] = 4 weeks storage, ambient conditions
[18] = 25° C. (+/−2° C.) and 60% relative humidity (+/−5% RH)

C=C(C[C@H](NC(=O)c1ccc(CCc2ccc3nc(N)nc(N)c3c2)cc1)C(=O)[O-])C(=O)[O-].[K+].[K+] [Form II, (S)-2-{4-[2-(2,4-diamino-quinazolin-6-yl)-ethyl]-benzoylamino}-4-methylene-pentanedioic acid, dipotassium salt]
Purity by HPLC-UV [1, 3]: 96.53 area % | Purity by HPLC-UV [1, 4]: 96.43 area % | Purity by HPLC-UV [1, 5]: 96.42 area % | Purity by HPLC-UV [1, 6]: 96.24 area % | Purity by HPLC-UV [1, 7]: 96.35 area % | Purity by HPLC-UV [1, 8]: 96.49 area % | Purity by HPLC-UV [1, 9]: 96.24 area % | Purity by HPLC-UV [1, 10]: 95.52 area % | Purity by HPLC-UV, average [1, 11]: 96.44 area % | Purity by HPLC-UV, average [1, 12]: 96.10 area % | Purity by HPLC-UV, average [1, 13]: 96.49 area % | Purity by HPLC-UV [1, 14]: 96.46 area % | Water content (Karl Fisher) ([2]; 1 week storage, 25° C./60% RH): 17.0% | Water content (Karl Fisher) ([2]; 1 week storage, 40° C./75% RH): 21.2% | Water content (Karl Fisher) [2, 15]: 18.7% | Water content (Karl Fisher) ([2]; 2 weeks storage, 25° C./60% RH): 16.3% | Water content (Karl Fisher) ([2]; 2 weeks storage, 40° C./75% RH): 24.4% | Water content (Karl Fisher) [2, 16]: 21.1% | Water content (Karl Fisher) ([2]; 4 weeks storage, 25° C./60% RH): 16.5% | Water content (Karl Fisher) ([2]; 4 weeks storage, 40° C./75% RH): 26.6% | Water content (Karl Fisher) [2, 17]: 21.9% | Storage stability (in words) [2, 18]: stable | Water uptake on storage (in words) [2, 18]: no significant water uptake | Water content (Karl Fisher) ([2]; zero point (day of synthesis)): 15.6%

C=C(C[C@H](NC(=O)c1ccc(CCc2ccc3nc(N)nc(N)c3c2)cc1)C(=O)[O-])C(=O)[O-].[K+].[K+] [Form I, (S)-2-{4-[2-(2,4-diamino-quinazolin-6-yl)-ethyl]-benzoylamino}-4-methylene-pentanedioic acid, dipotassium salt]
Water uptake on storage (in words) [2, 18]: no significant water uptake

C=C(C[C@H](NC(=O)c1ccc(CCc2ccc3nc(N)nc(N)c3c2)cc1)C(=O)[O-])C(=O)[O-].[K+].[K+] [Form Ib, (S)-2-{4-[2-(2,4-diamino-quinazolin-6-yl)-ethyl]-benzoylamino}-4-methylene-pentanedioic acid, dipotassium salt]
Purity by HPLC-UV [1, 3]: 95.96 area % | Purity by HPLC-UV [1, 4]: 95.87 area % | Purity by HPLC-UV [1, 5]: 95.87 area % | Purity by HPLC-UV [1, 6]: 95.67 area % | Purity by HPLC-UV [1, 7]: 95.43 area % | Purity by HPLC-UV [1, 8]: 95.78 area % | Purity by HPLC-UV [1, 9]: 95.85 area % | Purity by HPLC-UV [1, 10]: 95.34 area % | Purity by HPLC-UV [1, 17]: 95.91 area % | Purity by HPLC-UV, average [1, 11]: 95.83 area % | Purity by HPLC-UV, average [1, 12]: 95.55 area % | Purity by HPLC-UV, average [1, 13]: 95.88 area % | Purity by HPLC-UV [1, 14]: 95.94 area % | Water content (Karl Fisher) ([2]; 1 week storage, 25° C./60% RH): 16.0% | Water content (Karl Fisher) ([2]; 1 week storage, 40° C./75% RH): 19.6% | Water content (Karl Fisher) [2, 15]: 16.2% | Water content (Karl Fisher) ([2]; 2 weeks storage, 25° C./60% RH): 15.5% | Water content (Karl Fisher) ([2]; 2 weeks storage, 40° C./75% RH): 22.7% | Water content (Karl Fisher) [2, 16]: 16.5% | Water content (Karl Fisher) ([2]; 4 weeks storage, 25° C./60% RH): 16.4% | Water content (Karl Fisher) ([2]; 4 weeks storage, 40° C./75% RH): 26.8% | Water content (Karl Fisher) [2, 17]: 18.4% | Water content (Karl Fisher) ([2]; zero point (day of synthesis)): 14.8%
